Test results from patent US20230340530A1, “Methods of Protecting RNA” (Pfizer Inc., priority 2020, published 2023).

Tests used:
[1] = system: random 30nt RNA oligonucleotide with a 5′ Cy5 fluorophore and a 3′ Biotin (SEQ ID NO: 9); assay: RNA Fluorescence Polarization (FP) protection assay; format: biochemical; conditions: 62.5 mM NaOH, 18 hours, dose response 600 µM top dose, n=2
Procedure: (§1) In the FP assay, fluorophores were added to the 3′ and 5′ end of a short RNA construct and incubated with a boron compound under accelerated degradation conditions (e.g., base and temperature). For intact RNA, the 2 fluorophores come together to produce fluorescence. When the RNA is cleaved, there is no fluorescence. […] The counter screen assay run for each boron compound was used as control.
The RNA FP protection assay used a random 30nt RNA oligonucleotide (oligo) with a 5′ Cy5 fluorophore and a 3′ Biotin of the following sequence: 5′-Cy5-
In the presence of excess streptavidin, the RNA oligo will bind to the streptavidin and rotational spin will decrease causing an increase in the mP value in a fluorescence polarization (FP) measurement. When the RNA backbone is hydrolyzed under base mediated hydrolysis with increasing pH the Cy5 fluorophore will be free to spin faster lowering the mP value in an FP measurement. Compounds that inhibit base mediated hydrolysis will prevent release of Cy5 and reduction in mP value. […]
With regard to the plots provided in FIGS. 2-7, the detection for this assay used the fluorescent polarization of the fluorescent dye used in the assay. When a fluorescent dye has a high mass the spin rate is low and when the fluorescence is measured using two polarizing filters one parallel and one perpendicular the amount of spin can be measured. The unit Polarization was measured as mili-Polarization (mP). A dye with high mass will have a high mP reading and low mass will have a low mP reading. Streptavidin was added to bind to the biotin-RNA-Cy5 oligo to achieve high mass and the high mP reading. […] When a boron compound dose provides 100% activity, the RNA is intact/protected and the mP value measured is high. […]
To all wells in a compound spotted assay ready plate (Coming #3820) were added 2.5 µL of a 2x Biotin-RNA-Cy5 (Genescript custom #SC1518) and Streptavidin (ThermoFisher#21135) made in nuclease free water, incubated for 20 minutes, 2.5 µL of 50 mM Tris pH 7.2 was added to the positive control wells, and 2.5 µL 125 mM NaOH was added to all other wells. […]

[2] = RNA FP protection counter screen assay; conditions: counter screen for false positives, n=2
Procedure: as §1

[3] = target: RNA samples (Chi18 or HCV IRES); assay: Droplet Digital Polymerase Chain Reaction (ddPCR) assay of RNA protection; format: biochemical; conditions: 50 mM Tris buffer pH 11.4, 16 hrs at 30° C. for Chi18 or 42° C. for HCV; table does not say which RNA; 600 µM to 0.018 µM compound, 2% DMSO; read-out: EC50 Values Obtained from the ddPCR Assay
Procedure: The ddPCR assays measured RNA integrity by converting intact RNA to cDNA by reverse transcription, then performing digital PCR in thousands of nanoliter-sized droplets for each sample. PCR was performed within each droplet, which allowed for more sensitive detection of subtle changes in RNA concentration compared to traditional PCR or qPCR. Additionally, primers/probes specific to the 5′ end of the RNA/cDNA transcript(s) were used to assess fragment integrity, i.e. degraded RNA had fewer 5′ positive droplets. The BioRad QX200 Droplet Digital PCR System was used for the ddPCR workflow.
RNA samples (Chi18 or HCV IRES) were diluted to 100 fg/µL in 50 mM Tris buffer pH 11.4. Boron compounds were tested in a dose-response format to determine EC50. A compound dilution plate that contained a 30 mM top concentration of compound in DMSO was serially (half-log) diluted 10 times. A quantity of 0.12 µL of this compound dilution plate was spotted into a 96-well PCR plate (Thermo). Sample RNAs were added (6 µL) and incubated with test compounds as described below. Final compound concentrations ranged from 600 µM to 0.018 µM in 2% DMSO.
For the degradation reaction, treated RNAs were incubated for 16 hrs at 30° C. for Chi18 samples or 42° C. for HCV samples. Upon completion of the degradation reaction, cDNA was made and ddPCR run for each sample (96 well plates). Positive 5′ droplet values were divided by the total accepted droplet values for each sample and a ratio value generated for each sample.
Data was imported into a database where percent (%) protection and compound EC50 were calculated and curated. […] EC50 was determined by using a four parameter logistic equation: Y=A+((B-A)/(1+(C/X)D)); where Y is percent protection, X is compound concentration, A and B are minimum and maximum asymptotes, respectively, C is EC50, and D is Hill slope.

Row | Compound | ability of the boron compound to protect RNA from being cleaved/degraded (percent activity, FP) [1] | activity in the RNA FP protection counter screen [2] | EC50 [3] [µM]
1 | CC1(C)OB(C2(B3OC(C)(C)C(C)(C)O3)CCCCC2)OC1(C)C [PF-07230998, 2,2′-(cyclohexane-1,1-diyl)bis(4,4,5,5-tetramethyl-1,3,2-dioxaborolane)] | RNA protective effect | lack of activity | 
2 | CC1(C)OB(O)c2cc(C(=O)O)ccc21 [PF-06966741, 1-hydroxy-3,3-dimethyl-1,3-dihydrobenzo[c][1,2]oxabor ole-6-carboxylic acid] | RNA protective effect | lack of activity | 
3 | NCc1cc(C(F)(F)F)ccc1Oc1ccc2c(c1)COB2O [PF-06967658, 5-(2-(aminomethyl)-4-(trifluoromethyl)phenoxy)be nzo[c][1,2]oxaborol-1 (3H)-ol] | RNA protective effect | lack of activity | 
4 | C[C@H]1c2ccc(NC(=O)CCC(=O)Nc3ccc4c(c3)B(O)OC4)c(O)c2C(=O)C2=C(O)[C@]3(O)C(=O)C(C(N)=O)=C(O)[C@@H](N(C)C)[C@@H]3[C@@H](O)[C@@H]21 [PF-06968256, N-1-[(5R,5aR,6S,6aR,7S,10aS)-9-carbamoyl-7-(dimethylamino)-1,6,8,10a,11-pentahydroxy-5-methyl-10,12-dioxo-5,5a,6,6a,7,10,10a,12-octahydrotetracen-2-yl]-N~4~-(1-hydroxy-1,3-dihydro-2,1-benzoxaborol-6-yl)butanediamide] |  |  | 75.7
5 | C[C@H]1c2ccc(NC(=O)c3ccc4c(c3)B(O)OC4(C)C)c(O)c2C(=O)C2=C(O)[C@]3(O)C(=O)C(C(N)=O)=C(O)[C@@H](N(C)C)[C@@H]3[C@@H](O)[C@@H]21 [PF-06968101, N-[(5R,5aR,6S,6aR,7S,10aS)-9-carbamoyl-7-(dimethylamino)-1,6,8,10a,11-pentahydroxy-5-methyl-10,12-dioxo-5,5a,6,6a,7,10,10a,12-octahydrotetracen-2-yl]-1-hydroxy-3,3-dimethyl-1,3-dihydro-2,1-benzoxaborole-6-carboxamide] |  |  | 162
6 | C[C@H]1c2ccc(NCCC(=O)Nc3ccc4c(c3)OCCOB4O)c(O)c2C(=O)C2=C(O)[C@]3(O)C(=O)C(C(N)=O)=C(O)[C@@H](N(C)C)[C@@H]3[C@@H](O)[C@@H]21 [PF-06968559, (4S,4aR,5S,5aR,6R,12aS)-4-(dimethylamino)-3,5,10,12,12a-pentahydroxy-9-({3-[(1-hydroxy-3,4-dihydro-1H-2,5,1-benzodioxaborepin-7-yl)amino]-3-oxopropyl}amino)-8-methyl-1,11-dioxo-1,4,4a,5,5a,6,11,12a-oc tahydrotetracene-2-carboxamide] |  |  | 99.1
7 | C[C@H]1c2ccc(NC(=O)c3ccc4c(c3)B(O)OC4)c(O)c2C(=O)C2=C(O)[C@]3(O)C(=O)C(C(N)=O)=C(O)[C@@H](N(C)C)[C@@H]3[C@@H](O)[C@@H]21 [PF-06968126, N-[(5R,5aR6S,6aR,7S,10aS)-9-carbamoyl-7-(dimethylamino)-1,6,8,10a,11-pentahydroxy-5-methyl-10,12-dioxo-5,5a,6,6a,7,10,10a,12-octahydrotetracen-2-yl]-1-hydroxy-1,3-dihydro-2,1-benzoxaborole-6-carboxamide] |  |  | 393
8 | C[C@H]1c2c(NC(=O)c3ccc4c(c3)B(O)OC4(C)C)ccc(O)c2C(=O)C2=C(O)[C@]3(O)C(=O)C(C(N)=O)=C(O)[C@@H](N(C)C)[C@@H]3[C@@H](O)[C@@H]21 [PF-06968370, N-[(6aS,10S,10aR,11S,11aR, 12R)-8-carbamoyl-10-(dimethylamino)-4,6,6a,9,11-pentahydroxy-12-methyl-5,7-dioxo-5,6a,7,10,10a,11,11a,12-octahydrotetracen-1-yl]-1-hydroxy-3,3-dimethyl-1,3-dihydro-2,1-benzox aborole-6-carboxamide] |  |  | 258
9 | CN(C)/C(O)=C/C1=[O+][B-](F)(F)Oc2cc(O)ccc21 [PF-03806704, {(2Z)-3-(dimethylamino)-3-hydroxy-1-[4-hydroxy-2-(hydroxy-kappaO)phenyl]prop-2-en-1-onato-kappaO}(difluorido)boron] |  |  | 323
10 | O=C(OB(c1cccc(F)c1)c1cccc(F)c1)c1ncccc1O [PF-06956417] |  |  | 430
11 | CN(C)c1cc(NC(=O)CCNC(=O)c2ccc3c(c2)COB3O)c(O)c2c1C[C@H]1C[C@H]3[C@H](N(C)C)C(O)=C(C(N)=O)C(=O)[C@@]3(O)C(O)=C1C2=O [PF-06967772, N-(3-{[(5aR,6aS,7S,10aS)-9-carbamoyl-4,7-bis(dimethylamino)-1,8,10a,11-tetrahydroxy-10,12-dioxo-5,5a,6,6a,7,10,10a,12-octahydrotetracen-2-yl]amino}-3-oxopropyl)-1-hydroxy-1,3-dihydro-2,1-benzoxaborole-5-carboxamide] |  |  | 286
12 | C[C@H]1c2ccc(NC(=O)CCC(=O)NC[C@H]3CCB(O)O3)c(O)c2C(=O)C2=C(O)[C@]3(O)C(=O)C(C(N)=O)=C(O)[C@@H](N(C)C)[C@@H]3[C@@H](O)[C@@H]21 (racemic) [PF-06968488, N~1~-[(5RS,5aRS,6SR,6aRS,7S R,10aSR)-9-carbamoyl-7-(dimethylamino)-1,6,8,10a,11-pentahydroxy-5-methyl-10,12-dioxo-5,5a,6,6a,7,10,10a,12-octahydrotetracen-2-yl]-N~4~-{[(5RS)-2-hydroxy-1,2-oxaborolan-5-y I]methyl}butanediamide] |  |  | 189
13 | bis(acetato-kappaO)[1-cyclopropyl-6,7-difluoro-8-methyl-4-(oxo-kappaO)-1,4-dihydroquinoline-3-carboxylato-kappaO]boron [PF-04743686] |  |  | 271
